# Data taken from patent US9918983B2, “Suicidal LSD1 inhibitors targeting SOX2-expressing cancer cells” (THE BOARD OF REGENTS OF THE NEVADA SYSTEM OF HIGHER …, priority 2013, dated 2018).
# Tests used:
# [1] = target: T1, recombinant LSD1 (GST-LSD1) (Homo sapiens, UniProt O60341); experiment: In vitro demethylation assay, recombinant LSD1, H3K4me2 peptide; assay type: biochemical; conditions: dimethylated H3K4 peptide; 50 μM CBB1007 or 2 μM MS-275
# T1 construct: Human LSD1 and HDAC1 full-length cDNAs were obtained from Open Biosystems; GST (N, cleaved yes); made in house; host or cells: Escherichia coli BL21
# Text: H3K4me2 and H4K16ac were purchased from AnaSpec and Shanghai Science Peptide Biological Technology Co., Ltd., respectively. Human LSD1 and HDAC1 full-length cDNAs were obtained from Open Biosystems. Human CoREST cDNA was amplified by reverse transcription-PCR (RT-PCR) using mRNA isolated from HeLa cells. These cDNAs were fully sequenced and cloned into the pGEX-KG or pET28a vector and expressed as the glutathione S-transferase (GST)- or His-tagged fusion proteins in the Escherichia coli BL21 strain and affinity purified with glutathione or Ni-Sepharose (GE Healthcare, United Kingdom) resin. […]
# For a typical deacetylation assay, 1 μg rHDAC1 or 1 μg immunoprecipitated endogenous HDAC1-protein A complexes (from two 10-cm dishes) was incubated with 0.4 μg H4K16ac peptide in the presence or absence of 50 μM CBB1007 or 2 μM MS-275 at 30° C. for 1 h. The percentages of deacetylated products were analyzed by mass spectrometry, and the data were analyzed by GraphPad Prism (version 5) software. The reaction products were analyzed by mass spectrometry to separate the peptide substrate (H4K16ac) and the product (H4K16), as previously described (Wang, J., et al. (2011) Cancer Research 71, 7238-7249). […]
# [2] = test system: ES-2 cells; experiment: Cell growth/viability (MTT, microscopy); assay type: cell-based, human; conditions: ES-2 cells, 50 μM, 30 hours
# Description: (§1) Lung, breast, ovarian, and other carcinoma cells were either obtained from American Type Culture Collection (ATCC) or from the DTP and DCTD Tumor Repository of National Cancer Institute (the NCI-60 cancer cell line panel), operated by Charles River Laboratory, Inc., as listed in Table 1. They were cultured according to instructions and treated with various concentrations of LSD1 inhibitors for 30-36 hours for mRNA analysis by quantitative real time RT-PCR or for 30-48 hours for protein analysis and the cell viability assays using Western blotting or microscopy and MTT assays as described previously (Wang, J., et al. (2011) Cancer Research 71, 7238-7249).
# Alternatively, cell viability assays were conducted as previously described (Wang, J., et al. (2011) Cancer Research 71, 7238-7249). […] Dimethylsulfoxide (DMSO) was used as a solvent control. MTT was added to a final concentration of 0.5 mg/mL and cells were re-incubated for 4 hours. After removing the medium, 200 μL DMSO was added to dissolve formazan, followed by incubation for 10 minutes, and absorbance was measured at 490 nm by a Bio Red microplate reader. All assays were performed in triplicates for each concentration. The cell viability rate was calculated as the relative percentage of MTT absorption as follows: % cell viability=(mean experimental absorbance/mean control absorbance)×100.
# (§2) Table 8 below lists activity of CBB3001 (compound 10) in Sox2-negative (ES-2) and Sox2-expressing (PA-1 and T47D) cancer cells determined in a cell-based assay as described herein (see also FIG. 3A-C).
# [3] = test system: NCI-H520 cells; experiment: Cell growth/viability (MTT, microscopy); assay type: cell-based, human; conditions: 24-30 hr (50 μM, 30 hr in FIG. 5B)
# Description: as §1
# (§3) Alternatively, cell viability assays were conducted as previously described (Wang, J., et al. (2011) Cancer Research 71, 7238-7249). For the MTT assay, cells were seeded onto 96-well culture plates with a density of 2000-5000 cells/well, and incubated with CBB1003 or CBB1007 at various concentrations from 1 to 100 μM for 30-48 hours, depending cell growth rate. Dimethylsulfoxide (DMSO) was used as a solvent control. MTT was added to a final concentration of 0.5 mg/mL and cells were re-incubated for 4 hours. After removing the medium, 200 μL DMSO was added to dissolve formazan, followed by incubation for 10 minutes, and absorbance was measured at 490 nm by a Bio Red microplate reader. All assays were performed in triplicates for each concentration. The cell viability rate was calculated as the relative percentage of MTT absorption as follows: % cell viability=(mean experimental absorbance/mean control absorbance)×100. […]
# (§4) Referring to FIG. 5C, the percent viability of cells treated with LSD1 inhibitors or siRNAs compared with control cells, as determined by 3-(4,5-dimethylthiazol-2-yl)-2,5-diphenyltetrazolium bromide (MTT) assay is shown. […] The statistical differences between inhibitor-treated and control groups were analyzed by one-way ANOVA (scale bar=[…]; **p<0.01).
# [4] = test system: NCI-H1437 cells; experiment: Cell growth/viability (MTT, microscopy); assay type: cell-based, human; conditions: 24-30 hr (50 μM, 30 hr in FIG. 5B)
# Description: as §1, §3, §4
# [5] = test system: A549 cells; experiment: Cell growth/viability (MTT, microscopy); assay type: cell-based, human; conditions: 50 μM, 30 hr
# Description: as §1, §3, §4
# [6] = test system: PA-1 cells; experiment: Cell growth/viability (MTT, microscopy); assay type: cell-based, human; conditions: PA-1 cells, 50 μM, 30 hours
# Description: as §1
# Alternatively, cell viability assays were conducted as previously described (Wang, J., et al. (2011) Cancer Research 71, 7238-7249). For the MTT assay, cells were seeded onto 96-well culture plates with a density of 2000-5000 cells/well, and incubated with CBB1003 or CBB1007 at various concentrations from 1 to 100 μM for 30-48 hours, depending cell growth rate. Dimethylsulfoxide (DMSO) was used as a solvent control. MTT was added to a final concentration of 0.5 mg/mL and cells were re-incubated for 4 hours. After removing the medium, 200 μL DMSO was added to dissolve formazan, followed by incubation for 10 minutes, and absorbance was measured at 490 nm by a Bio Red microplate reader. All assays were performed in triplicates for each concentration. The cell viability rate was calculated as the relative percentage of MTT absorption as follows: % cell viability=(mean experimental absorbance/mean control absorbance)×100.
# as §2
smiles,measurement,setting,value
COC(=O)c1cc(CN2CCN(C(=N)N)CC2)cc(C(=O)N2CCN(C(=O)c3ccc(C(=N)N)cc3)CC2)c1 [CBB1007],demethylation activity of GST-LSD1,[1],sensitive
same,cell growth,[2],not sensitive
same,cell growth,[3],selectively and specifically inhibit the growth
same,cell growth,[4],no detectable effects
same,cell growth,[5],specifically inhibited the growth
same,cell growth,[6],sensitive
